In a melting point compilation (Tetko et al.; mined from patent text by program, amines drawn as free bases though some values may be those of a salt):

Structure (SMILES) | melting point
Clc1nc2ccccc2cc1CBr | 125 °C
CCCCOc1ccc(S(C)(=O)=O)cc1C(N)=O | 146 to 150 °C
CC(C)(C)NC(=O)NCc1cccc2c1C(=O)N(C1CCC(=O)NC1=O)C2=O (stereo not drawn) | 186 to 188 °C
CCCC1CCC(O)(c2ccc(CCCCc3ccc(C4(O)CCC(CCC)CC4)cc3)cc2)CC1 (stereo not drawn) | 136 °C
COC(c1nccs1)(c1nccs1)C(F)(F)F | 40 to 41 °C
O=S1(=O)CCN2C=CC=C(c3ccc(OCC4CCOCC4)cc3)C2=N1 | 268 to 269 °C
CCOC(=O)c1c(Cn2cncn2)nc2sc(C)c(C)c2c1-c1ccc(OC)c(OC)c1 | 136 to 137 °C
CN1C(=O)C(c2ccc(OCCCCCBr)cc2)Sc2cc(Cl)ccc21 (stereo not drawn) | 66 to 68 °C
CCn1c(=O)n(O)c(=O)c2cc(F)c(N3CCCC3)cc21 | 170 to 171 °C
COC(=O)C(CCS(N)(=O)=O)c1ccc([N+](=O)[O-])cc1F (stereo not drawn) | 99 to 101 °C
COc1ccc(-c2cnc3cc4[nH]ncc4cc3n2)cc1F | > 250 °C
CCOC(=O)c1cccc(S(=O)(=O)NC(=O)Nc2nc(C)nc(OC)n2)c1I | 177 to 179 °C
Nc1ccc2oc3c(c2c1)CCCCC3 | 98 to 99 °C
O=C(OCc1ccccc1[N+](=O)[O-])C(F)(F)C(F)(F)C(F)(F)C(F)(F)C(F)(F)C(F)(F)C(F)(F)F | 34 to 35 °C
COC(=O)[C@@H]1C[C@H](OC(=O)c2ccsc2)C(=O)[C@H]2[C@@]1(C)CC[C@H]1C(=O)O[C@H](c3ccoc3)C[C@]21C | 211 to 212 °C
Nc1ccc(C2CCN(C(=O)C(F)(F)F)CC2)cc1 | 111 to 112 °C
CNc1cc(Nc2ccc(OC)cc2)ncn1 | 174 to 182 °C
OCc1cnc(-c2ccc(OC(F)(F)F)cc2)nc1 | 84 to 85 °C
N#Cc1nn(-c2c(Cl)cc(C(F)(F)F)cc2Cl)c(N)c1C=NO | 175 to 178 °C
CC(C)(C)c1nc(C(=O)O)c(Cl)c(N)c1F | 149 to 151 °C
CCOC(=O)c1[nH]c(=O)c(CC(C)C)[n+]([O-])c1O | 153 to 155 °C
CN(C)CCc1cc2occc2c(=O)[nH]1 | 97.5 to 98 °C
CP(C)(=O)CNc1cc(Oc2ncc(Cl)cc2Cl)ccc1[N+](=O)[O-] | 153 to 155 °C
Cc1sc(C(N)=O)c2c1-c1nn(CC(F)(F)F)cc1CC2 | 227 to 228 °C
OCCOC1=Nc2ccc(Cl)cc2C(c2ccccc2)=NC1 | 142 to 144 °C
CCCc1c(O)ccc2c(=O)cc(C(=O)OC)oc12 | 222 to 224 °C
COC(=O)c1cc(=O)c2ccc(S)cc2o1 | 147 to 150 °C
CCOCc1nc2c(N)nc3ccccc3c2n1CC1(OCCS(C)(=O)=O)CCN(C(C)=O)CC1 | 208 to 210 °C
CS(=O)(=O)c1nnc(-c2ccc(Cl)cc2)o1 | 159 to 160 °C

Now from value to compound:

melting point | Structure (SMILES)
178 to 180 °C | CC(=O)c1c(-c2ccc(C(F)(F)F)cc2)[nH]c(-c2ccncc2)c1C
223 to 228 °C | COc1ccc(N2C(=O)N(c3cccc(C#N)c3)c3nc(Nc4ccccc4)ncc3C2C)c(F)c1 (stereo not drawn)
197 to 200 °C | CN(C)S(=O)(=O)c1cc(-c2ccccc2)ccc1S(N)(=O)=O
245 °C | COc1ccc(-c2n[nH]c(=O)c3cc(OC)ccc23)cc1
141 to 143 °C | CCN(CC)CCOc1ccc(Nc2ncc3cc(-c4c(Cl)cccc4Cl)c(=O)n(C)c3n2)cc1
129 to 130 °C | CCOP(=O)(/C=C/c1cn(-c2ccccc2)nc1OCc1ccc(OCc2nc(-c3ccc(C(=O)OC)cc3)oc2C)c(OC)c1)OCC
97 to 99 °C | CON=C(C(=O)O)c1cccc(OCc2ccccc2Cl)c1OCc1ccccc1Cl
92 to 105 °C | Cc1ccnc2c1nc(COc1ccc(CC3SC(=O)N(C(c4ccccc4)(c4ccccc4)c4ccccc4)C3=O)cc1)n2C (stereo not drawn)
136 to 138 °C | N#Cc1cccn1-c1cccc(C(=O)N=C(N)N)c1
237 to 240 °C | O=c1c2c([nH]n1-c1ccc(Cl)cc1)-c1cc(Cl)ccc1SC2
251 to 252 °C | CCn1cc(C(=O)O)c(=O)c2cc(F)c(-n3cccc3)cc21
> 260 °C | Cc1ccc(Oc2ccccc2C(=N)NN)c(O)c1
49 to 51 °C | O=CC1CC1(c1cccc(F)c1)c1cccc(F)c1 (stereo not drawn)
169 to 170 °C | CCCCc1oc2ccccc2c1-c1ccc(-c2ccc(OC(Cc3ccccc3)C(=O)O)cc2)cc1 (stereo not drawn)
110 to 111 °C | Nc1ccc(-c2cnc(CSCCOc3ccccc3)o2)cc1
148 to 150 °C | CC(C)[C@H](NC(=O)OC(C)(C)C)[C@H]1CCn2c(c(C3=C(c4cn(-c5ccccc5)c5ccccc45)C(=O)OC3=O)c3ccccc32)C1
138 to 139 °C | CCOC(CNC(=O)N(N=Cc1ccccc1)c1cc(Cl)c(Cc2ccc(Cl)cc2)c(Cl)c1)OCC
88 to 90 °C | CCC(=O)Oc1ccc(C(=O)c2ccc(Sc3ccccc3)cc2)c(O)c1
122 to 126 °C | NC(=O)Cc1cc(Oc2ccc3c(ccn3C(=O)Nc3ccc(CN4CCN(C5CC5)CC4)c(C(F)(F)F)c3)c2)ncn1
113 to 115 °C | O=C(O)C1=CSC2C(=Cc3cc4c(s3)-c3cccnc3SC4)C(=O)N12 (stereo not drawn)

melting point | Structure (SMILES)
156 to 157 °C | COc1c(-c2nnc(Cc3ccc(F)cc3)o2)n(C)c2ccccc2c1=O
203 to 205 °C | COc1cc(Nc2cc3c(cc2Nc2ccccc2)C(=O)NC3=O)cc(OC)c1OC
141 to 143 °C | Cc1ccc(C2c3c(C)c(N4Cc5ccccc5C4)c(C)c(C)c3OC2(C)C)cc1 (stereo not drawn)
133 to 134 °C | COc1ccc(CNC(=O)C(=O)NCCc2ccccn2)c(C)c1
248 to 250 °C | CCn1cc(C(=O)O)c(=O)c2cc(F)c(N3CCNC(c4cc(C)sc4C)C3)cc21 (stereo not drawn)
145 to 146 °C | COC1CCN(Cc2ccc(C#CC(=O)Nc3ccc(-c4ccc(Cl)cc4)cc3)cc2)CC1
257 to 263 °C | Cc1cc(CN2CCN(c3ccc(C(=O)NC4CC4)cc3)CC2)cc2c1OC(C)C(=O)N2 (stereo not drawn)
130 to 132 °C | O=C1NC(=O)C(Cc2ccc(N3CCC(NC[C@H](O)COc4cccnc4)CC3)cc2)S1 (stereo partly drawn)
157 to 158 °C | CN(C)CCN1CCC(O)(c2ccccc2)C(C(O)c2ccccc2)C1 (stereo not drawn)
189 to 191 °C | O=C(O)c1cc(S(=O)(=O)n2ccc3ccccc32)ccc1Br
126 to 128 °C | O=C(NCCN1CCCCC1)Nc1ccc(-c2nnc(CSCCOc3ccccc3)o2)cc1
192 to 194 °C | CN(C)C(=O)CCc1c2n(c(=O)c3ccccc13)CCc1ccccc1-2
223 to 225 °C | O=C(O)c1cc(-n2c(-c3ccccc3)cc3c2CCc2ccccc2-3)ccc1O
239 to 241 °C | CNc1nc(-c2cccc(NC(=O)c3ccc(N4CCCC4)nc3)c2)c2cc(OC)c(OC)cc2n1
138 to 146 °C | CS(=O)(=O)c1ccc(Cl)cc1C(=O)O
205 °C | Cc1c(C(=O)c2ccc(Cl)c(S(N)(=O)=O)c2)[nH]c2ccccc12
175 to 180 °C | CC(=O)N(CCCc1ccccc1)[C@H]1CC[C@H](c2ccc(O)cc2)CC1
205 to 207 °C | CC1(C)CC(=O)C2=C(C1)NC1=C(C(=O)CC(C)(C)C1)C2c1cccc(Oc2ccccc2)c1
153 to 154 °C | COc1ccc([C@@H]2Sc3ccccc3N(CCN(C)C)C(=O)[C@@H]2OC(=O)Nc2ccc(F)cc2)cc1 (relative stereo)
